According to ChEMBL document CHEMBL1144455, “A small molecule-kinase interaction map for clinical kinase inhibitors” (Nat Biotechnol, 2005):

Experiments:
[1] = target: T1, Serine/threonine-protein kinase PLK4 (Homo sapiens, UniProt O00444)
T1 sequence (O00444 whole entry): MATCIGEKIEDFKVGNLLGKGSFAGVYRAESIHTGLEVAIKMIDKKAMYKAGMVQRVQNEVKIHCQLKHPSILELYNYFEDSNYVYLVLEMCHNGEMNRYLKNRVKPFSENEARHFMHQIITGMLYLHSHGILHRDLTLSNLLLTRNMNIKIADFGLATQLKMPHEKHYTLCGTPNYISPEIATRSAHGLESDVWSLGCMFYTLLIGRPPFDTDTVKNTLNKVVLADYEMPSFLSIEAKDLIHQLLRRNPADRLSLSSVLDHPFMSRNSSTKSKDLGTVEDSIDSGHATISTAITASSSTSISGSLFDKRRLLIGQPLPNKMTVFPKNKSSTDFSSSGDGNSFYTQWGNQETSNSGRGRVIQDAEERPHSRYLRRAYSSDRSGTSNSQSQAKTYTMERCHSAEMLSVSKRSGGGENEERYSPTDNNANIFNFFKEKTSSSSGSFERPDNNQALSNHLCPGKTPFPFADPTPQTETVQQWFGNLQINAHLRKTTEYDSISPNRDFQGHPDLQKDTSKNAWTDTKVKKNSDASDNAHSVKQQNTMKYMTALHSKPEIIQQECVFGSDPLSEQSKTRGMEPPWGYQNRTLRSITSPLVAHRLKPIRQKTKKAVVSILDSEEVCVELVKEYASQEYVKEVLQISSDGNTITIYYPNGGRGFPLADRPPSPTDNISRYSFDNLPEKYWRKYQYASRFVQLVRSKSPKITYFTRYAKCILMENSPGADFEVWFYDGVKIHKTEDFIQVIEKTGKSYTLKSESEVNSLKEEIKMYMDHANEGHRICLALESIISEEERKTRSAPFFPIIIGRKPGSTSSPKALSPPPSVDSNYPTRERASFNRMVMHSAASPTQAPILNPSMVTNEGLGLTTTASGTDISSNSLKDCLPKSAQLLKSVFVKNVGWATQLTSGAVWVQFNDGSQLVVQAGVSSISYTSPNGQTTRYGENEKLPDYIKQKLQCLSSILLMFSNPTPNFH

[2] = target: Death-associated protein kinase 2 (Homo sapiens, UniProt Q9UIK4)
Sequence of Death-associated protein kinase 2 (Q9UIK4 whole entry): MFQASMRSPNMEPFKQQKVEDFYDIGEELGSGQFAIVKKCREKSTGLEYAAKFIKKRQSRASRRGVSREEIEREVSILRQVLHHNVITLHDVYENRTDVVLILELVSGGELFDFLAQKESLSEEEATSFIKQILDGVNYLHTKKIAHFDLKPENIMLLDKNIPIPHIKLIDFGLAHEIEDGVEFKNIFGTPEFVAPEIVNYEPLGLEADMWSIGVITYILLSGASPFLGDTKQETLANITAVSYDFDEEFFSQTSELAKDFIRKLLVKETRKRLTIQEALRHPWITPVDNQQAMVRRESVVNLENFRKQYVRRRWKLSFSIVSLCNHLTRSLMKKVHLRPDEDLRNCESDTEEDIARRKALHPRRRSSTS

Oc1c2ccccc2c2c3c(cccc13)N=N2 [SP-600125]
Kd [1]: 770 nM
Kd [2]: 610 nM
